Measured values: PubChem BioAssay (NCI)
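Growth conditions: 96-well plates. Treatment: test compound, 48 hours, 5 concentrations. Analysis: linear interpolation between bracketing concentrations; unreached endpoints set to highest concentration. TGI is the concentration that stops growth completely.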

Each molecule was assayed on A498 renal (assay: inhibition of tumour cell growth, NCI panel, 48 h).
`CC1(C)COC(c2cccnc2/C=N/O)=N1` was tested, and the TGI was > 100 µM. `CC(C)C(=O)[C@@]1(C)SC[C@H]2CCN=C21` was tested, and the TGI was > 100 µM. In the case of `O=C(NC(Cc1c[nH]c2ccccc12)C(=O)Nc1ccc(Br)cc1)OCc1ccccc1` (centres undefined), the TGI is reported as 23.7 µM. In the case of `CCCCCCCCCC1(N=[N+]=[N-])C(=O)c2ccccc2N(C)C1=O` (centres undefined), the TGI is reported as 76.8 µM. In the case of `CCOC(=O)C1=C(C)N(Cc2ccc(Cl)cc2Cl)C2(O)C=CC(=O)C3C(=O)N(c4ccccc4)C(=O)C132` (centres undefined), the TGI is reported as 16.9 µM. In the case of `COC(=O)c1cc2c3c(ccc2[nH]1)N(C(=O)c1cc2cc(OC)c(OC)c(OC)c2[nH]1)CC3CCl` (centres undefined), the TGI is reported as > 100 µM. `CC(=O)c1cccc(NC(=O)C(=O)NNc2n[nH]c(=S)n2N)c1` showed a TGI of 37.7 µM. With `COC(=O)c1ccc(C(=O)NC(Cc2ccc(Oc3cc(CC(NC(=O)c4ccccc4C(=O)OC)C(=O)OC)ccc3OC)cc2)C(=O)OC)cc1` (centres undefined) the TGI was > 100 µM. `Cc1cc2c(cc1Cl)SC(NS(=O)(=O)c1ccc(Cl)cc1)=NS2(=O)=O` was tested, and the TGI was > 100 µM. Work on `COc1cc2cc3c4c(cc(OC)c(OC)c4c2cc1OC)CCN3C(=O)OCCN1CCNCC1` yielded a TGI of 27.8 µM. In the case of `COc1cc(C(Cc2ccccc2)NC(C)=O)oc(=O)c1` (centres undefined), the TGI is reported as > 100 µM. With `CS(=O)(=O)O[C@H]1CN2C[C@@H](O)[C@@H](O)[C@H]2[C@H]1CO` the TGI was > 100 µM. `C=C(CCC/C(C)=C/C=C/[C@]1(C)CCCc2ccoc21)CC(=O)O` was tested, and the TGI was > 100 µM. In the case of `CCCCc1c(N(C)C)c(OC(C)=O)c(-c2cn(C)c3ccccc23)oc1=O`, the TGI is reported as 81.4 µM. In the case of `CCCN=C(N)NC#N`, the TGI is reported as > 100 µM. Work on `Nc1ccc2c(c1)N(C(=O)c1cc3cc(NC(=O)c4cc5ccccc5o4)ccc3[nH]1)CC2CCl` (centres undefined) yielded a TGI of 0.544 µM. In the case of `O=c1[nH]c(=O)n(C2OC(CO)C(O)C2O)cc1NN=NCc1ccccc1` (centres undefined), the TGI is reported as > 100 µM. `CCCCC1=NNC(=O)C1` was tested, and the TGI was > 100 µM.

What follows are molecules tested on DU-145 prostate (assay: inhibition of tumour cell growth, NCI panel, 48 h).
`CC(C)C(=O)[C@@]1(C)SC[C@H]2CCN=C21` was tested, and the TGI was > 100 µM. For `O=C(NC(Cc1c[nH]c2ccccc12)C(=O)Nc1ccc(Br)cc1)OCc1ccccc1` (centres undefined), the TGI was 29.2 µM. For `CCCCCCCCCC1(N=[N+]=[N-])C(=O)c2ccccc2N(C)C1=O` (centres undefined), the TGI was > 100 µM. `CCOC(=O)C1=C(C)N(Cc2ccc(Cl)cc2Cl)C2(O)C=CC(=O)C3C(=O)N(c4ccccc4)C(=O)C132` (centres undefined) gave a TGI of 2.97 µM. With `COC(=O)c1cc2c3c(ccc2[nH]1)N(C(=O)c1cc2cc(OC)c(OC)c(OC)c2[nH]1)CC3CCl` (centres undefined) the TGI was > 84.6 µM. For `CC(=O)c1cccc(NC(=O)C(=O)NNc2n[nH]c(=S)n2N)c1`, the TGI was 19.2 µM. With `COC(=O)c1ccc(C(=O)NC(Cc2ccc(Oc3cc(CC(NC(=O)c4ccccc4C(=O)OC)C(=O)OC)ccc3OC)cc2)C(=O)OC)cc1` (centres undefined) the TGI was > 100 µM. For `Cc1cc2c(cc1Cl)SC(NS(=O)(=O)c1ccc(Cl)cc1)=NS2(=O)=O`, the TGI was > 100 µM. For `CS(=O)(=O)O[C@H]1CN2C[C@@H](O)[C@@H](O)[C@H]2[C@H]1CO`, the TGI was > 100 µM. In the case of `C=C(CCC/C(C)=C/C=C/[C@]1(C)CCCc2ccoc21)CC(=O)O`, the TGI is reported as 98.4 µM. For `COC(=O)CCC1=CCC2(SC)C(=O)Nc3cccc1c32` (centres undefined), the TGI was > 100 µM. In the case of `CCCCc1c(N(C)C)c(OC(C)=O)c(-c2cn(C)c3ccccc23)oc1=O`, the TGI is reported as > 100 µM. In the case of `Nc1ccc2c(c1)N(C(=O)c1cc3cc(NC(=O)c4cc5ccccc5o4)ccc3[nH]1)CC2CCl` (centres undefined), the TGI is reported as 2.08 µM.

The molecules below were run on HOP-92 NSCLC (assay: inhibition of tumour cell growth, NCI panel, 48 h).
`CC1(C)COC(c2cccnc2/C=N/O)=N1` was tested, and the TGI was > 100 µM. With `CC(C)C(=O)[C@@]1(C)SC[C@H]2CCN=C21` the TGI was 75 µM. `O=C(NC(Cc1c[nH]c2ccccc12)C(=O)Nc1ccc(Br)cc1)OCc1ccccc1` (centres undefined) was tested, and the TGI was 19.1 µM. For `CCCCCCCCCC1(N=[N+]=[N-])C(=O)c2ccccc2N(C)C1=O` (centres undefined), the TGI was 53.3 µM. Work on `CCOC(=O)C1=C(C)N(Cc2ccc(Cl)cc2Cl)C2(O)C=CC(=O)C3C(=O)N(c4ccccc4)C(=O)C132` (centres undefined) yielded a TGI of 4.09 µM. `COC(=O)c1cc2c3c(ccc2[nH]1)N(C(=O)c1cc2cc(OC)c(OC)c(OC)c2[nH]1)CC3CCl` (centres undefined) was tested, and the TGI was > 100 µM. `CC(=O)c1cccc(NC(=O)C(=O)NNc2n[nH]c(=S)n2N)c1` gave a TGI of 28.7 µM. In the case of `COC(=O)c1ccc(C(=O)NC(Cc2ccc(Oc3cc(CC(NC(=O)c4ccccc4C(=O)OC)C(=O)OC)ccc3OC)cc2)C(=O)OC)cc1` (centres undefined), the TGI is reported as > 100 µM. Work on `Cc1cc2c(cc1Cl)SC(NS(=O)(=O)c1ccc(Cl)cc1)=NS2(=O)=O` yielded a TGI of 39.5 µM. With `COc1cc2cc3c4c(cc(OC)c(OC)c4c2cc1OC)CCN3C(=O)OCCN1CCNCC1` the TGI was 26.2 µM. With `O=c1[nH]c2c(nc1NC13CC4CC(CC(C4)C1)C3)c(=O)oc1ccccc12` the TGI was > 100 µM. `COc1cc(C(Cc2ccccc2)NC(C)=O)oc(=O)c1` (centres undefined) was tested, and the TGI was > 100 µM. `C=C(CCC/C(C)=C/C=C/[C@]1(C)CCCc2ccoc21)CC(=O)O` was tested, and the TGI was > 100 µM. In the case of `COC(=O)CCC1=CCC2(SC)C(=O)Nc3cccc1c32` (centres undefined), the TGI is reported as > 100 µM. `CCCN=C(N)NC#N` was tested, and the TGI was > 100 µM. For `Nc1ccc2c(c1)N(C(=O)c1cc3cc(NC(=O)c4cc5ccccc5o4)ccc3[nH]1)CC2CCl` (centres undefined), the TGI was 1.47 µM. For `O=c1[nH]c(=O)n(C2OC(CO)C(O)C2O)cc1NN=NCc1ccccc1` (centres undefined), the TGI was > 100 µM. In the case of `CCCCC1=NNC(=O)C1`, the TGI is reported as > 100 µM.

The molecules below were run on HT29 colon (assay: inhibition of tumour cell growth, NCI panel, 48 h).
In the case of `CC1(C)COC(c2cccnc2/C=N/O)=N1`, the TGI is reported as > 100 µM. For `CC(C)C(=O)[C@@]1(C)SC[C@H]2CCN=C21`, the TGI was > 100 µM. Work on `O=C(NC(Cc1c[nH]c2ccccc12)C(=O)Nc1ccc(Br)cc1)OCc1ccccc1` (centres undefined) yielded a TGI of 21.6 µM. For `CCCCCCCCCC1(N=[N+]=[N-])C(=O)c2ccccc2N(C)C1=O` (centres undefined), the TGI was > 100 µM. In the case of `CCOC(=O)C1(C#N)C(c2ccccc2)CC(O)(c2ccc(OC)cc2)C(C(=O)c2ccc(OC)cc2)C1c1ccccc1` (centres undefined), the TGI is reported as > 100 µM. With `COc1ccc(C2C(Cl)C(=O)N2n2cnc3ccccc3c2=O)cc1` (centres undefined) the TGI was > 100 µM. With `Cc1cc(N)c(C)c2c1[nH]c1ccc(O)cc12` the TGI was > 100 µM. Work on `CCOC(=O)C1=C(C)N(Cc2ccc(Cl)cc2Cl)C2(O)C=CC(=O)C3C(=O)N(c4ccccc4)C(=O)C132` (centres undefined) yielded a TGI of 3.5 µM. For `COC(=O)c1cc2c3c(ccc2[nH]1)N(C(=O)c1cc2cc(OC)c(OC)c(OC)c2[nH]1)CC3CCl` (centres undefined), the TGI was > 75.8 µM. Work on `CC(=O)c1cccc(NC(=O)C(=O)NNc2n[nH]c(=S)n2N)c1` yielded a TGI of 31.8 µM. For `COC(=O)c1ccc(C(=O)NC(Cc2ccc(Oc3cc(CC(NC(=O)c4ccccc4C(=O)OC)C(=O)OC)ccc3OC)cc2)C(=O)OC)cc1` (centres undefined), the TGI was > 100 µM. `Cc1cc2c(cc1Cl)SC(NS(=O)(=O)c1ccc(Cl)cc1)=NS2(=O)=O` was tested, and the TGI was > 100 µM. `COc1cc2cc3c4c(cc(OC)c(OC)c4c2cc1OC)CCN3C(=O)OCCN1CCNCC1` showed a TGI of 25.8 µM. `O=c1[nH]c2c(nc1NC13CC4CC(CC(C4)C1)C3)c(=O)oc1ccccc12` was tested, and the TGI was > 100 µM. For `COc1cc(C(Cc2ccccc2)NC(C)=O)oc(=O)c1` (centres undefined), the TGI was > 100 µM. For `CS(=O)(=O)O[C@H]1CN2C[C@@H](O)[C@@H](O)[C@H]2[C@H]1CO`, the TGI was > 100 µM. In the case of `C=C(CCC/C(C)=C/C=C/[C@]1(C)CCCc2ccoc21)CC(=O)O`, the TGI is reported as > 100 µM. In the case of `COC(=O)CCC1=CCC2(SC)C(=O)Nc3cccc1c32` (centres undefined), the TGI is reported as > 100 µM. `CCCCc1c(N(C)C)c(OC(C)=O)c(-c2cn(C)c3ccccc23)oc1=O` showed a TGI of 47.5 µM. `CCCN=C(N)NC#N` was tested, and the TGI was > 100 µM. For `Nc1ccc2c(c1)N(C(=O)c1cc3cc(NC(=O)c4cc5ccccc5o4)ccc3[nH]1)CC2CCl` (centres undefined), the TGI was > 32.7 µM. `O=c1[nH]c(=O)n(C2OC(CO)C(O)C2O)cc1NN=NCc1ccccc1` (centres undefined) was tested, and the TGI was > 100 µM. In the case of `CCCCC1=NNC(=O)C1`, the TGI is reported as > 100 µM.

The molecules below were run on IGROV1 ovarian (assay: inhibition of tumour cell growth, NCI panel, 48 h).
In the case of `CC1(C)COC(c2cccnc2/C=N/O)=N1`, the TGI is reported as > 100 µM. `CC(C)C(=O)[C@@]1(C)SC[C@H]2CCN=C21` was tested, and the TGI was > 100 µM. Molecule `O=C(NC(Cc1c[nH]c2ccccc12)C(=O)Nc1ccc(Br)cc1)OCc1ccccc1` (centres undefined) has a TGI of 27.6 µM. `CCCCCCCCCC1(N=[N+]=[N-])C(=O)c2ccccc2N(C)C1=O` (centres undefined) was tested, and the TGI was 60.7 µM. For `CCOC(=O)C1(C#N)C(c2ccccc2)CC(O)(c2ccc(OC)cc2)C(C(=O)c2ccc(OC)cc2)C1c1ccccc1` (centres undefined), the TGI was > 100 µM. `COc1ccc(C2C(Cl)C(=O)N2n2cnc3ccccc3c2=O)cc1` (centres undefined) was tested, and the TGI was > 100 µM. Work on `CCOC(=O)C1=C(C)N(Cc2ccc(Cl)cc2Cl)C2(O)C=CC(=O)C3C(=O)N(c4ccccc4)C(=O)C132` (centres undefined) yielded a TGI of 3.51 µM. With `COC(=O)c1cc2c3c(ccc2[nH]1)N(C(=O)c1cc2cc(OC)c(OC)c(OC)c2[nH]1)CC3CCl` (centres undefined) the TGI was > 100 µM. `CC(=O)c1cccc(NC(=O)C(=O)NNc2n[nH]c(=S)n2N)c1` showed a TGI of 25.8 µM. `COC(=O)c1ccc(C(=O)NC(Cc2ccc(Oc3cc(CC(NC(=O)c4ccccc4C(=O)OC)C(=O)OC)ccc3OC)cc2)C(=O)OC)cc1` (centres undefined) was tested, and the TGI was > 100 µM. `Cc1cc2c(cc1Cl)SC(NS(=O)(=O)c1ccc(Cl)cc1)=NS2(=O)=O` was tested, and the TGI was > 100 µM. With `COc1cc2cc3c4c(cc(OC)c(OC)c4c2cc1OC)CCN3C(=O)OCCN1CCNCC1` the TGI was 32.2 µM. For `O=c1[nH]c2c(nc1NC13CC4CC(CC(C4)C1)C3)c(=O)oc1ccccc12`, the TGI was > 100 µM. In the case of `COc1cc(C(Cc2ccccc2)NC(C)=O)oc(=O)c1` (centres undefined), the TGI is reported as > 100 µM. For `CS(=O)(=O)O[C@H]1CN2C[C@@H](O)[C@@H](O)[C@H]2[C@H]1CO`, the TGI was > 100 µM. With `C=C(CCC/C(C)=C/C=C/[C@]1(C)CCCc2ccoc21)CC(=O)O` the TGI was > 100 µM. `COC(=O)CCC1=CCC2(SC)C(=O)Nc3cccc1c32` (centres undefined) was tested, and the TGI was > 100 µM.
